Consider five compounds from ChEMBL document CHEMBL1150498, “Novel derivatives of pseudomonic acid” (Bioorg Med Chem Lett, 1997).

≈ marks a conversion by molar mass, not a printed value. A value given as a limit tells only on which side of the number the result lay.

The test relates to Staphylococcus aureus. The experiment in a line: Compound was evaluated for inhibitory activity against Staphylococcus aureus ATCC 6538P. In kind it is functional.
For the compound `COC(=O)CCCCCCCCOC(=O)/C=C/C[C@@H]1OC[C@H](NS(=O)(=O)CCCCl)[C@@H](O)[C@H]1O`, 50 µg/mL (≈ 94.7 µM) was the least that counted as inhibitory (MIC).
The result for `CCCS(=O)(=O)N[C@H]1CO[C@@H](C/C=C/C(=O)OCCCCCCCCC(=O)OC)[C@H](O)[C@@H]1O` reads more than 100 µg/mL.
With `CCCCS(=O)(=O)N[C@H]1CO[C@@H](C/C=C/C(=O)OCCCCCCCCC(=O)OC)[C@H](O)[C@@H]1O` the figure was more than 100 µg/mL.
For the compound `COC(=O)CCCCCCCCOC(=O)/C=C/C[C@@H]1OC[C@H](NS(C)(=O)=O)[C@@H](O)[C@H]1O`, the minimum inhibitory concentration (MIC) is more than 100 µg/mL.
As for `COC(=O)CCCCCCCCOC(=O)/C=C/C[C@@H]1OC[C@H](NS(=O)(=O)c2cccc(Cl)c2)[C@@H](O)[C@H]1O`, the MIC is 25 µg/mL (≈ 44.5 µM).
